Drawing on patent US12581252B2, “Substituted pyrrolo[3,4-b]pyridines as PI3K-α inhibitors” (Relay Therapeutics, Inc., priority 2020, dated 2026), this text covers IC50 for 46 compounds.

pIC50: −log10 of the molar value.

The test deals with H1047R PIK3CA enzyme (Homo sapiens, UniProt P42336, H1047R). Description: ADP-Glo Biochemical PIK3CA Kinase Assay.
Chain of H1047R PIK3CA enzyme (P42336 whole entry H1047R): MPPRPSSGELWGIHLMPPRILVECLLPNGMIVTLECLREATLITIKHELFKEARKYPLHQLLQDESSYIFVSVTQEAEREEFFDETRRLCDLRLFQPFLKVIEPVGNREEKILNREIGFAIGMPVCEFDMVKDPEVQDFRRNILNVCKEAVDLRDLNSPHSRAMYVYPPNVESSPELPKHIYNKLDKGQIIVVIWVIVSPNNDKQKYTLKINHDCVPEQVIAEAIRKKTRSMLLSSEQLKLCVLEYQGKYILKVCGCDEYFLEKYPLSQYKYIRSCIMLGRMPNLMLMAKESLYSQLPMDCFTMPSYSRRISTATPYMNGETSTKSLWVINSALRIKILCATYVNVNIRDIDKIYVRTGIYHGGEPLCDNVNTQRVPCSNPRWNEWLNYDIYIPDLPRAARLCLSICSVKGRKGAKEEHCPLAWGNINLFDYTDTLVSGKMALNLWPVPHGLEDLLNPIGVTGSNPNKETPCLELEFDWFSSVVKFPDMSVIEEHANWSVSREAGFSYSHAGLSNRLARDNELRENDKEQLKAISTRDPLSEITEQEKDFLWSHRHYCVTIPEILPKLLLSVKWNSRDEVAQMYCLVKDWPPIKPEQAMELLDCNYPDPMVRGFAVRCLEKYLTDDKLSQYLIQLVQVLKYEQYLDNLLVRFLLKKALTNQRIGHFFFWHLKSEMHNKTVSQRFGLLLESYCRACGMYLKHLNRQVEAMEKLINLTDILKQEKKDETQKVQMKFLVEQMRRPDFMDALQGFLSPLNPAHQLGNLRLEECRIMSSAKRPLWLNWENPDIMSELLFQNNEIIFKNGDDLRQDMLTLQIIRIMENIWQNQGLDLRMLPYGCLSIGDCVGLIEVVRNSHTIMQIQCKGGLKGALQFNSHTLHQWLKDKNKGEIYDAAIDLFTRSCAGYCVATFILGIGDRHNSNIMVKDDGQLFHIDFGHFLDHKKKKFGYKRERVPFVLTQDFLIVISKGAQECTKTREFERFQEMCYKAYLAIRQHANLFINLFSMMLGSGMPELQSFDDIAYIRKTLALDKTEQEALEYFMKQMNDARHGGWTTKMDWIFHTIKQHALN
Chain of H1047R PIK3CA enzyme (P27986 whole entry partner): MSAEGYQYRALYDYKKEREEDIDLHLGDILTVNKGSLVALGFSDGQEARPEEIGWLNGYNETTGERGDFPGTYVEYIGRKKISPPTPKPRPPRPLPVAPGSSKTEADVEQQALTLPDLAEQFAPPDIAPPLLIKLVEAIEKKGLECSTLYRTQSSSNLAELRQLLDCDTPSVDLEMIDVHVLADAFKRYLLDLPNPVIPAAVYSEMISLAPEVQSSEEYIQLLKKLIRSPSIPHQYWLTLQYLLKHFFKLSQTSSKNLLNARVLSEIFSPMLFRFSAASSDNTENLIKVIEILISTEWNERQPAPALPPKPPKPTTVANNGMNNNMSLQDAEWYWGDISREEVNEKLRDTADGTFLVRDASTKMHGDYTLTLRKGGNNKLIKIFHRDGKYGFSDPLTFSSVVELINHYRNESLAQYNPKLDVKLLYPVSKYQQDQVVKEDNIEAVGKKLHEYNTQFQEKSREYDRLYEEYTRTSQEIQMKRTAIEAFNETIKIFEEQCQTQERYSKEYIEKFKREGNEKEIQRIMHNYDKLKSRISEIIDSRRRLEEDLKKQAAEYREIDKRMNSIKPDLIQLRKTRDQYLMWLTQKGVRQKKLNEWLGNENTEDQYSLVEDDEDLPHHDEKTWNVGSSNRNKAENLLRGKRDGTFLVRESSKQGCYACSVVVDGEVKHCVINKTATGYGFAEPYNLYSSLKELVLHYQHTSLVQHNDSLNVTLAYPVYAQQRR
For `CC1(C(=O)Nc2cc(Br)cc3c2C(c2cc(F)ccc2Cl)NC3=O)CCCc2ccccc21` (stereo not shown) [Compound I-634], the negative-log IC50 (pIC50) was 5.00 to 6.00.

In the case of `Cc1cc2cccc(C(=O)Nc3cc(Br)cc4c3C(c3cc(F)ccc3Cl)NC4=O)c2o1` (stereo not shown) [Compound I-635], the negative-log IC50 (pIC50) was 5.00 to 6.00.

The compound `Cn1ccc2c(C(=O)Nc3cc(Br)cc4c3C(c3cc(F)ccc3Cl)NC4=O)ccnc21` (stereo not shown) [Compound I-636] showed a pIC50 of 4.00 to 5.00.

In turn, `O=C(Nc1cc(Br)cc2c1C(c1cc(F)ccc1Cl)NC2=O)c1ccc2nncn2c1` (stereo not shown) [Compound I-637] showed a pIC50 of 4.00 to 5.00.

In turn, `O=C1NC(c2cc(F)ccc2Cl)c2c(NC(=O)c3nccc4ccccc34)cc(Br)cc21` (stereo not shown) [Compound I-638] showed a negative-log IC50 (pIC50) of 4.00 to 5.00.

On to `N#Cc1ccccc1C(=O)Nc1cc(Br)cc2c1C(c1cc(F)ccc1Cl)NC2=O` (stereo not shown) [Compound I-639], for which the pIC50 is 4.00 to 5.00.

Consider `CCc1cc(C(=O)Nc2cc(Br)cc3c2C(c2ccccc2C)NC3=O)ccc1F` (stereo not shown) [Compound I-640], for which the negative-log IC50 (pIC50) is 5.00 to 6.00.

In turn, `O=C(Nc1cc(F)cc2c1C(c1cc(F)ccc1Cl)NC2=O)c1cc(F)cc(C(F)(F)F)c1` (stereo not shown) [Compound I-641] gave a pIC50 of at least 7.00.

As for `O=C(Nc1cc(C2=CCOC2)cc2c1C(c1cc(F)ccc1Cl)NC2=O)c1cc(F)cc(C(F)(F)F)c1` (stereo not shown) [Compound I-643], the pIC50 was at least 7.00.

Compound `O=C(Nc1cc(CC2(O)CC2)cc2c1C(c1cc(F)ccc1Cl)NC2=O)c1cc(F)cc(C(F)(F)F)c1` (stereo not shown) [Compound I-644] gave a pIC50 of at least 7.00.

For the compound `CC(C)(O)Cc1cc(NC(=O)c2cc(F)cc(Cl)c2)c2c(c1)C(=O)NC2c1cc(F)ccc1Cl` (stereo not shown) [Compound I-645], the pIC50 was at least 7.00.

Consider `O=C1NC(c2cc(F)ccc2Cl)c2c(NC(=O)c3cc(F)cc4cc[nH]c34)cccc21` (stereo not shown) [Compound I-646], for which the negative-log IC50 (pIC50) is at least 7.00.

Compound `O=C(Nc1cc(-c2ccc(=O)n(C3CC3)c2)nc2c1C(c1cc(F)ccc1Cl)NC2=O)c1cc(F)cc(C(F)(F)F)c1` (stereo not shown) [Compound I-647] gave a pIC50 of at least 7.00.

`Cn1cc(-c2cc(NC(=O)c3cc(F)cc(C(F)(F)F)c3)c3c(c2)C(=O)NC3c2cc(F)ccc2Cl)ccc1=O` (stereo not shown) [Compound I-648]: the negative logarithm of the IC50 (pIC50) was at least 7.00.

In the case of `CCn1cc(-c2cc(NC(=O)c3cc(F)cc(C(F)(F)F)c3)c3c(c2)C(=O)NC3c2cc(F)ccc2Cl)ccc1=O` (stereo not shown) [Compound I-649], the pIC50 is at least 7.00.

In turn, `CC(C)n1cc(-c2cc(NC(=O)c3cc(F)cc(C(F)(F)F)c3)c3c(n2)C(=O)N[C@@H]3c2cc(F)ccc2Cl)ccc1=O` [Compound I-650] gave a pIC50 of 6.00 to 6.30.

With `CC(C)n1cc(-c2cc(NC(=O)c3cc(F)cc(C(F)(F)F)c3)c3c(n2)C(=O)N[C@H]3c2cc(F)ccc2Cl)ccc1=O` [Compound I-651], the negative-log IC50 (pIC50) is at least 7.00.

For `Cc1ncc(-c2cc(NC(=O)c3cc(F)cc(C(F)(F)F)c3)c3c(n2)C(=O)N[C@@H]3c2cc(F)ccc2Cl)cn1` [Compound I-652], the pIC50 is 6.00 to 6.30.

For `Cc1ncc(-c2cc(NC(=O)c3cc(F)cc(C(F)(F)F)c3)c3c(n2)C(=O)N[C@H]3c2cc(F)ccc2Cl)cn1` [Compound I-653], the negative logarithm of the IC50 (pIC50) was at least 7.00.

Turning to `O=C(Nc1cc(C2CNC2)cc2c1C(c1cc(F)ccc1Cl)NC2=O)c1cc(F)cc(C(F)(F)F)c1` (stereo not shown) [Compound I-654], the negative-log IC50 (pIC50) is at least 7.00.

`CC(=O)N1CC(c2cc(NC(=O)c3cc(F)cc(C(F)(F)F)c3)c3c(c2)C(=O)NC3c2cc(F)ccc2Cl)C1` (stereo not shown) [Compound I-655] showed a negative logarithm of the IC50 (pIC50) of at least 7.00.

Compound `CC(C)(COS(C)(=O)=O)c1cc(NC(=O)c2cc(F)cc(C(F)(F)F)c2)c2c(c1)C(=O)NC2c1cc(F)ccc1Cl` (stereo not shown) [Compound I-656] gave a pIC50 of at least 7.00.

`Cc1ccccc1C1NC(=O)c2cccc(NC(=O)c3cc(F)cc(C4COC4)c3)c21` (stereo not shown) [Compound I-657] showed a pIC50 of 5.00 to 6.00.

`O=C(Nc1cccc2c1C(c1ccnc(O)c1)NC2=O)c1cc(F)cc(C(F)(F)F)c1` (stereo not shown) [Compound I-658] showed a negative logarithm of the IC50 (pIC50) of 4.00 to 5.00.

Consider `N#Cc1cccc(C2NC(=O)c3cccc(NC(=O)c4cc(F)cc(C(F)(F)F)c4)c32)c1` (stereo not shown) [Compound I-659], for which the pIC50 is 4.00 to 5.00.

The compound `O=C(Nc1cccc2c1C(c1cccc3c1NCC3)NC2=O)c1cc(F)cc(C(F)(F)F)c1` (stereo not shown) [Compound I-660] showed a negative-log IC50 (pIC50) of 4.00 to 5.00.

On to `O=C(Nc1cccc2c1C(c1cccc(Br)c1)NC2=O)c1cc(F)cc(C(F)(F)F)c1` (stereo not shown) [Compound I-663], for which the pIC50 is 4.00 to 5.00.

As to `O=C(Nc1cccc2c1C(c1cccc3cn[nH]c13)NC2=O)c1cc(F)cc(C(F)(F)F)c1` (stereo not shown) [Compound I-666], the pIC50 is 4.00 to 5.00.

`O=C(Nc1cc(Br)cc2c1[C@@H](c1cccc(F)c1Cl)NC2=O)c1cc(F)cc(C(F)(F)F)c1` [Compound I-667]: the negative-log IC50 (pIC50) was 5.00 to 6.00.

`Cn1ccc2ccc(C(=O)Nc3cc(Br)cc4c3C(c3cc(F)ccc3Cl)NC4=O)cc21` (stereo not shown) [Compound I-668]: the pIC50 is 5.00 to 6.00.

Compound `O=C(Nc1cc(Br)cc2c1[C@H](c1cccc(F)c1Cl)NC2=O)c1cc(F)cc(C(F)(F)F)c1` [Compound I-669] showed a negative-log IC50 (pIC50) of at least 7.00.

Consider `Cn1ccc2c(C(=O)Nc3cc(Br)cc4c3C(c3cc(F)ccc3Cl)NC4=O)cccc21` (stereo not shown) [Compound I-670], for which the negative-log IC50 (pIC50) is 4.00 to 5.00.

Regarding `O=C(Nc1cc(Br)cc2c1[C@@H](c1cc(F)ccc1F)NC2=O)c1cc(F)cc(C(F)(F)F)c1` [Compound I-671], the pIC50 was 5.00 to 6.00.

`O=C(Nc1cc(Br)cc2c1C(c1cccc(F)c1Cl)NC2=O)c1cc(F)cc(C(F)(F)F)c1` (stereo not shown) [Compound I-672]: the pIC50 is at least 7.00.

In turn, `O=C1NC(c2cc(F)ccc2Cl)c2c(NC(=O)c3cncc4ccccc34)cc(Br)cc21` (stereo not shown) [Compound I-673] showed a pIC50 of 5.00 to 6.00.

Compound `O=C(Nc1cc(Br)cc2c1[C@H](c1cc(F)ccc1F)NC2=O)c1cc(F)cc(C(F)(F)F)c1` [Compound I-674] showed a pIC50 of 6.30 to 7.00.

The compound `O=C(Nc1cc(Br)cc2c1C(c1cc(F)ccc1F)NC2=O)c1cc(F)cc(C(F)(F)F)c1` (stereo not shown) [Compound I-675] gave a negative-log IC50 (pIC50) of at least 7.00.

`O=C(Nc1cc(Br)cc2c1[C@@H](c1cc(F)c(F)cc1Cl)NC2=O)c1cc(F)cc(C(F)(F)F)c1` [Compound I-676] showed a pIC50 of 5.00 to 6.00.

For `O=C(Nc1cc(Br)cc2c1[C@H](c1cc(F)c(F)cc1Cl)NC2=O)c1cc(F)cc(C(F)(F)F)c1` [Compound I-677], the pIC50 is at least 7.00.

`O=C(Nc1cc(Br)cc2c1C(c1cc(F)c(F)cc1Cl)NC2=O)c1cc(F)cc(C(F)(F)F)c1` (stereo not shown) [Compound I-678] showed a negative-log IC50 (pIC50) of at least 7.00.

`O=C(Nc1cc(Br)cc2c1[C@@H](c1c(F)cccc1Cl)NC2=O)c1cc(F)cc(C(F)(F)F)c1` [Compound I-679] showed a pIC50 of 5.00 to 6.00.

`O=C(Nc1cc(Br)cc2c1[C@H](c1c(F)cccc1Cl)NC2=O)c1cc(F)cc(C(F)(F)F)c1` [Compound I-680] gave a negative logarithm of the IC50 (pIC50) of at least 7.00.

`O=C(Nc1cc(Br)cc2c1C(c1c(F)cccc1Cl)NC2=O)c1cc(F)cc(C(F)(F)F)c1` (stereo not shown) [Compound I-681] gave a negative logarithm of the IC50 (pIC50) of 5.00 to 6.00.

Regarding `O=C(Nc1cc(Br)cc2c1[C@H](c1cccc(F)c1F)NC2=O)c1cc(F)cc(C(F)(F)F)c1` [Compound I-682], the negative-log IC50 (pIC50) was 6.30 to 7.00.

On to `O=C(Nc1cc(Br)cc2c1[C@@H](c1cccc(F)c1F)NC2=O)c1cc(F)cc(C(F)(F)F)c1` [Compound I-683], for which the pIC50 is 5.00 to 6.00.

In turn, `O=C(Nc1cc(Br)cc2c1C(c1cccc(F)c1F)NC2=O)c1cc(F)cc(C(F)(F)F)c1` (stereo not shown) [Compound I-684] gave a pIC50 of 5.00 to 6.00.

What is called pIC50 is the negative decadic logarithm of the IC50, by convention in mol/L. Higher therefore signals a small IC50.
